# Data as given in the NIST ThermoML archive (doi:10.1021/je8006265).
# ± gives the expanded uncertainty stated by the source.
# Conditions: 298.15 K; 101.33 kPa; Crystal
row,mass density [kg/m3],Compound
1,1216.68 ± 1.9,c1ccc2[nH]ccc2c1 [1H-indole]

# Same assay, conditions: 298.15 K; 101.33 kPa; Liquid
row,Compound,mass density [kg/m3]
1,Nc1ccccc1 [aniline],1017.42 ± 0.2
2,CCCCCCCCCCCCCCCC [hexadecane],773.19 ± 0.32
3,c1ccncc1 [pyridine],978.25 ± 0.27

# Further lines, results first:
row,mass density [kg/m3],Compound
1,965.9 ± 2.9,c1cc[nH]c1 [pyrrole]
2,1089.45 ± 0.31,c1ccc2ncccc2c1 [quinoline]
